Measured values reported in patent US7834019B2, “Substituted pyrazolo[3,4-d]pyrimidinone derivatives” (Banyu Pharmaceutical Co., Ltd., priority 2006, dated 2010).

Key:
Weel kinase = biological target: T1, Weel kinase (Homo sapiens, UniProt P30291); assay: Weel kinase-inhibitory effect (33P-ATP filter assay with purified GST-tagged Weel kinase); format: biochemical; settings: Poly(Lys,Tyr) substrate, 10 μM ATP, 30° C. for 30 minutes
T1 construct: made in house; host or cells: Sf9 insect cells (recombinant baculovirus)
Source text: Pharmaceutical Test 1 (Weel Kinase-Inhibitory Effect)
(1) Purification of Weel Kinase:
A cDNA of Weel kinase with […] (GST) fused at the amino terminal thereof was inserted into a baculovirus expression vector to construct a recombinant baculovirus, with which cells of an insect cell line Sf9 were infected for high expression therein. The infected cells were recovered and solubilized, and then the GST-tagged Weel kinase protein was adsorbed by a glutathione column, and eluted from the column with glutathione, and the active fraction was desalted in a desalting column to give a purified enzyme.
(2) Determination of Weel Kinase Activity:
In determination of the Weel kinase activity, a synthetic peptide, Poly(Lys,Tyr) Hydrobromide (Lys:Tyr (4:1)) bought from Sigma was used as the substrate.
The amount of the reaction mixture was 21.1 μL; and the composition of the reaction buffer was 50 mM Tris-HCl buffer (pH 7.4)/10 mM magnesium chloride/1 mM dithiothreitol. The purified Weel kinase, 2.5 μg of the substrate peptide, 10 μM of non-labeled adenosine triphosphate (ATP) and 1 μCi of [γ-^33P]-labeled ATP (2500 Ci/mmol or more) were added to it, and incubated at 30° C. for 30 minutes. Next, 10 μL of 350 mM phosphate buffer was added to the reaction mixture to stop the reaction. The substrate peptide was adsorbed by a P81 paper filter 96-well plate, then washed a few times with 130 mM phosphate buffer, and its radioactivity was counted with a liquid scintillation counter. The [γ-^33P]-labeled ATP was bought from Amersham Bioscience.
To add the test compound to the reaction system, the compound was diluted with dimethylsulfoxide (DMSO) to prepare a series of dilutions. 1.1 μL of each dilution was added to the reaction system. As a control, 1.1 μL of DMSO was added to the reaction system.

[1] = system: Human colon cancer cells WiDr; assay: Tumor growth-inhibitory effect, WiDr tumor implanted subcutaneously in nude rats; format: in vivo, F344/N Jcl-mu nude rats; settings: gemcitabine 50 mg/kg intravenously alone
Experimental: Pharmaceutical Test 4 (Tumor Growth-Inhibitory Effect)
Human colon cancer cells WiDr (gotten from ATCC) were implanted into the subcutaneous area of the back of F344/N Jcl-mu nude rats. Eight days after the implantation, gemcitabine (50 mg/kg, Gemzar injection, Eli-Lilly) was intravenously administered to them; and after 24 hours, a test compound was dissolved in a solvent (5% glucose) and given to them through continuous intravenous injection for 8 hours. The tumor volume (0.5×(major diameter)×(minor diameter)^2) was determined on day 0, 3, 6, 10 and 13. Day 0 means the day on which gemcitabine was administered. The relative tumor volume is a relative value, as calculated on the basis of the tumor volume of 1 on day 0. The tumor growth percentage (% T/C) was obtained according to the following formula:
When the tumor volume change from day 0 in the group subjected to test compound administration is more than 0 (>0): % T/C=[(tumor volume change in the test compounds on day 3, 6, 10, 13)/(tumor volume change in the control on day 3, 6, 10, 13)]×100. When the tumor volume change from day 0 in the group subjected to test compound administration is less than 0 (<0): % T/C=[(tumor volume change in the test compounds on day 3, 6, 10, 13)/(tumor volume […])]×100.

T1 sequence (P30291 whole entry): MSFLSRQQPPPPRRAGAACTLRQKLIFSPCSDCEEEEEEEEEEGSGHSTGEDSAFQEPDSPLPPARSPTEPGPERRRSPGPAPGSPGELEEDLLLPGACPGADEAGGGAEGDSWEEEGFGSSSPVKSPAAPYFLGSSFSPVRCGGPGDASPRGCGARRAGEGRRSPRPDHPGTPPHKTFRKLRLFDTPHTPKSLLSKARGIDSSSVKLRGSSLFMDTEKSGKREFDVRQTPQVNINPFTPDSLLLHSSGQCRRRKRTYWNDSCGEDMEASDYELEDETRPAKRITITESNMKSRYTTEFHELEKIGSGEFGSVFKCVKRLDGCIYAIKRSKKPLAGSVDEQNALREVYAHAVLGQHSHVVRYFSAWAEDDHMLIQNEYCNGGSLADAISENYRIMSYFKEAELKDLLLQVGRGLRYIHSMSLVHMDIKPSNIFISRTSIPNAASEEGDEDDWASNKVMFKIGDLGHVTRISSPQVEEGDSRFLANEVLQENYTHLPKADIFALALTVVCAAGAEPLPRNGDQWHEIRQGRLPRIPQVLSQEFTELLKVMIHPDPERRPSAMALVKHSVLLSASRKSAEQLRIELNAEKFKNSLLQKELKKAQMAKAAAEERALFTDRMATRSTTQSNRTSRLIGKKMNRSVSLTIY

SMILES | IC50 (Weel kinase) [nM] | further results
C=CCn1c(=O)c2cnc(Nc3ccc(N4CCN(C)CC4)c(C)c3)nc2n1-c1cccc(OCCO)n1 [Example 98, 2-allyl-1-[6-(2-hydroxyethoxy)pyridin-2-yl]-6-{[3-methyl-4-(4-methylpiperazin-1-yl)phenyl]amino}-1,2-dihydro-3H-pyrazolo[3,4-d]pyrimidin-3-one] | 14 | 
C=CCn1c(=O)c2cnc(Nc3ccc(N4CCN(C)CC4)c(CO)c3)nc2n1-c1ccccn1 [Example 29, 2-allyl-6-{[3-hydroxymethyl-4-(4-methylpiperazin-1-yl)phenyl]amino}-1-pyridin-2-yl-1,2-dihydro-3H-pyrazolo[3,4-d]pyrimidin-3-one] | 20 | 
CC(C)n1c(=O)c2cnc(Nc3ccc(C4CCN(C)CC4)cc3)nc2n1-c1cccc(C(C)(C)O)n1 [Example 147, 1-[6-(1-hydroxy-1-methylethyl)pyridin-2-yl]-2-isopropyl-6-{[4-(1-methylpiperidin-4-yl)phenyl]amino}-1,2-dihydro-3H-pyrazolo[3,4-d]pyrimidin-3-one] | 24 | 
C=CCn1c(=O)c2cnc(Nc3ccc(N4CCN(C)CC4)cc3)nc2n1-c1cccc(N2CCN(C)C2=O)n1 [Example 148, 2-allyl-1-[6-(3-methyl-2-oxoimidazolidin-1-yl)pyridin-2-yl]-6-{[4-(4-methylpiperazin-1-yl)phenyl]amino}-1,2-dihydro-3H-pyrazolo[3,4-d]pyrimidin-3-one] | 17 | 
Nc1ccn([C@@H]2O[C@H](CO)[C@@H](O)C2(F)F)c(=O)n1 [Gemcitabine, gemcitabine, reference compound] |  | % T/C day 3 ([1]; day 3): 22%; % T/C day 6 ([1]; day 6): 31%; % T/C day 10 ([1]; day 10): 54%; % T/C day 13 ([1]; day 13): 65%
C=CCn1c(=O)c2cnc(Nc3ccc(N4CCN(C)CC4)cc3)nc2n1-c1cccc(C(=O)N(C)C)c1 [Example 1, 3-(2-allyl-6-{[4-(4-methylpiperazin-1-yl)phenyl]amino}-3-oxo-1,2-dihydro-3H-pyrazolo[3,4-d]pyrimidin-1-yl)-N,N-dimethylbenzamide] | 7 | 
C#CCn1c(=O)c2cnc(Nc3ccc(N4CCN(C)CC4)cc3)nc2n1-c1cccc(C(C)(C)O)n1 [Example 113, 1-[6-(1-hydroxy-1-methylethyl)pyridin-2-yl]-6-{[4-(4-methylpiperazin-1-yl)phenyl]amino}-2-(2-propynyl)-1,2-dihydro-3H-pyrazolo[3,4-d]pyrimidin-3-one] | 6.3 | 
C=CCn1c(=O)c2cnc(Nc3ccc(N4CCN(C)CC4)cc3)nc2n1-c1cccc(CN(C)C)c1 [Example 26, 2-allyl-1-[3-(dimethylaminomethyl)phenyl]-6-{[4-(4-methylpiperazin-1-yl)phenyl]amino}-1,2-dihydro-3H-pyrazolo[3,4-d]pyrimidin-3-one] | 18 | 
Cc1cc(Nc2ncc3c(=O)n(Cc4ccccc4)n(-c4ccccc4)c3n2)ccc1N1CCN(C)CC1 [Example 111, 2-benzyl-6-{[3-methyl-4-(4-methylpiperazin-1-yl)phenyl]amino}-1-phenyl-1,2-dihydro-3H-pyrazolo[3,4-d]pyrimidin-3-one] | 24 | 
C=CCn1c(=O)c2cnc(Nc3ccc(N4CCN(C)CC4)c(C)c3)nc2n1-c1cccc(CN(C)C)n1 [Example 52, 2-allyl-1-[6-[(dimethylamino)methyl]pyridin-2-yl]-6-{[3-methyl-4-(4-methylpiperazin-1-yl)phenyl]amino}-1,2-dihydro-3H-pyrazolo[3,4-d]pyrimidin-3-one] | 12 | 
C=CCn1c(=O)c2cnc(Nc3ccc(N4CCN(C)CC4)c(CO)c3)nc2n1-c1ccsc1 [Example 3, 2-allyl-6-{[3-(hydroxymethyl)-4-(4-methylpiperazin-1-yl)phenyl]amino}-1-(3-thienyl)-1,2-dihydro-3H-pyrazolo[3,4-d]pyrimidin-3-one] | 7.6 | 
C=CCn1c(=O)c2cnc(Nc3ccc(N4CCN(C)CC4)cc3)nc2n1-c1cccc(CN(C)S(C)(=O)=O)n1 [Example 99, N-{[6-(2-allyl-6-{[4-(4-methylpiperazin-1-yl)phenyl]amino}-3-oxo-1,2-dihydro-3H-pyrazolo[3,4-d]pyrimidin-1-yl)pyridin-2-yl]methyl}-N-methylmethanesulfonamide] | 8.8 | 
